# In ChEMBL document CHEMBL3885861, “Open TG-GATES”:
# Species: Rattus norvegicus
# Experiment: Open TG-GATES - Regimen: Single
# Assay type: toxicity, organism-based, Sprague-Dawley
# Parameters: regimen Single, gender Male, age 6 weeks
# Details: in vivo, po, route gavage; for TP / gamma-GTP / ALP / AST / BUN / CRE / Ca / Cl / DBIL / GLC / IP / K / LDH / Na / PL / RALB / TBIL / TC / TG: tissue Plasma; for APTT / Bas / Eos / Ht / MCH / MCHC / MCV / Mono / PT / Plat / RBC / Ret / WBC / Fbg: tissue Blood; for KIDNEY_L / KIDNEY_R / KIDNEY_TOTAL: tissue Kidney; for LIVER: tissue Liver
# [1] = 200 mg/kg, 3 h, dose level Middle
# [2] = 200 mg/kg, 6 h, dose level Middle
# [3] = 200 mg/kg, 9 h, dose level Middle
# [4] = 200 mg/kg, 24 h, dose level Middle
# [5] = 600 mg/kg, 3 h, dose level High
# [6] = 600 mg/kg, 6 h, dose level High
# [7] = 600 mg/kg, 9 h, dose level High
# [8] = 600 mg/kg, 24 h, dose level High
smiles,measurement,setting,value
CC(=O)Nc1nnc(S(N)(=O)=O)s1 [ACETAZOLAMIDE],TP,"60 mg/kg, 24 h, dose level Low",5.5 g/dL
same,gamma-GTP,"60 mg/kg, 24 h, dose level Low",1.2 IU/L
same,TERMINAL_BW,[1],208.6 g
same,APTT,[1],21.4 s
same,Bas,[1],0%
same,Eos,[1],1%
same,Ht,[1],42%
same,MCH,[1],21 pg
same,MCHC,[1],31.4%
same,MCV,[1],66.7 fL
same,Mono,[1],2.2%
same,PT,[1],16.8 s
same,Plat,[1],124.3 x10_4/uL
same,RBC,[1],629.8 x10_4/ul
same,Ret,[1],8.5%
same,WBC,[1],67.2 x10_2/uL
same,KIDNEY_L,[1],0.9 g
same,KIDNEY_R,[1],0.9 g
same,KIDNEY_TOTAL,[1],1.8 g
same,LIVER,[1],9.2 g
same,ALP,[1],1675.4 IU/L
same,AST,[1],71.2 IU/L
same,BUN,[1],12.2 mg/dL
same,CRE,[1],0.2 mg/dL
same,Ca,[1],11.1 mg/dL
same,Cl,[1],111.2 meq/L
same,DBIL,[1],0 mg/dL
same,GLC,[1],186.4 mg/dL
same,IP,[1],10.2 mg/dL
same,K,[1],3.7 meq/L
same,LDH,[1],191.6 IU/L
same,Na,[1],140.8 meq/L
same,PL,[1],143 mg/dL
same,RALB,[1],3.4 g/dL
same,TBIL,[1],0.012 mg/dL
same,TC,[1],80.4 mg/dL
same,TP,[1],6 g/dL
same,gamma-GTP,[1],1.2 IU/L
same,TERMINAL_BW,[2],207.7 g
same,APTT,[2],22.7 s
same,Bas,[2],0%
same,Eos,[2],1%
same,Fbg,[2],356 mg/dL
same,Ht,[2],42%
same,MCH,[2],21.2 pg
same,MCHC,[2],31.2%
same,MCV,[2],68 fL
same,Mono,[2],2.8%
same,PT,[2],16.9 s
same,Plat,[2],108.6 x10_4/uL
same,RBC,[2],617.6 x10_4/ul
same,Ret,[2],8.8%
same,WBC,[2],85 x10_2/uL
same,KIDNEY_L,[2],1 g
same,KIDNEY_R,[2],1 g
same,KIDNEY_TOTAL,[2],2 g
same,LIVER,[2],8.8 g
same,ALP,[2],1625.8 IU/L
same,AST,[2],71.2 IU/L
same,BUN,[2],11.6 mg/dL
same,CRE,[2],0.2 mg/dL
same,Ca,[2],11.1 mg/dL
same,Cl,[2],113.6 meq/L
same,DBIL,[2],0 mg/dL
same,GLC,[2],186.8 mg/dL
same,IP,[2],9.7 mg/dL
same,K,[2],4 meq/L
same,LDH,[2],180.8 IU/L
same,Na,[2],140 meq/L
same,PL,[2],135.8 mg/dL
same,RALB,[2],3.4 g/dL
same,TBIL,[2],0.024 mg/dL
same,TC,[2],84.2 mg/dL
same,TG,[2],21.4 mg/dL
same,TP,[2],6 g/dL
same,gamma-GTP,[2],1.6 IU/L
same,TERMINAL_BW,[3],200 g
same,APTT,[3],22.9 s
same,Bas,[3],0%
same,Eos,[3],0.8%
same,Fbg,[3],349.4 mg/dL
same,Ht,[3],43.2%
same,MCH,[3],20.8 pg
same,MCHC,[3],31%
same,MCV,[3],67.3 fL
same,Mono,[3],1.8%
same,PT,[3],16.3 s
same,Plat,[3],127.1 x10_4/uL
same,RBC,[3],644 x10_4/ul
same,Ret,[3],8.8%
same,WBC,[3],68.1 x10_2/uL
same,KIDNEY_L,[3],0.9 g
same,KIDNEY_R,[3],1 g
same,KIDNEY_TOTAL,[3],1.9 g
same,LIVER,[3],7.8 g
same,ALP,[3],1777.2 IU/L
same,AST,[3],61.6 IU/L
same,BUN,[3],13.2 mg/dL
same,CRE,[3],0.2 mg/dL
same,Ca,[3],11 mg/dL
same,Cl,[3],114.4 meq/L
same,DBIL,[3],0 mg/dL
same,GLC,[3],175 mg/dL
same,IP,[3],9.7 mg/dL
same,K,[3],3.8 meq/L
same,LDH,[3],182.6 IU/L
same,Na,[3],139 meq/L
same,PL,[3],122.4 mg/dL
same,RALB,[3],3.5 g/dL
same,TBIL,[3],0.026 mg/dL
same,TC,[3],72.4 mg/dL
same,TG,[3],13.8 mg/dL
same,TP,[3],6.1 g/dL
same,gamma-GTP,[3],1.4 IU/L
same,TERMINAL_BW,[4],205.9 g
same,APTT,[4],21.2 s
same,Bas,[4],0%
same,Eos,[4],1%
same,Fbg,[4],349 mg/dL
same,Ht,[4],40.8%
same,MCH,[4],20.9 pg
same,MCV,[4],62.9 fL
same,Mono,[4],2%
same,PT,[4],16.8 s
same,Plat,[4],132.1 x10_4/uL
same,RBC,[4],649.2 x10_4/ul
same,Ret,[4],8.1%
same,WBC,[4],101.2 x10_2/uL
same,KIDNEY_L,[4],1 g
same,KIDNEY_R,[4],1 g
same,KIDNEY_TOTAL,[4],1.9 g
same,LIVER,[4],8.5 g
same,ALP,[4],1929.2 IU/L
same,AST,[4],53.6 IU/L
same,BUN,[4],21.6 mg/dL
same,CRE,[4],0.2 mg/dL
same,Ca,[4],10.8 mg/dL
same,Cl,[4],114.4 meq/L
same,DBIL,[4],0 mg/dL
same,GLC,[4],189.6 mg/dL
same,IP,[4],7.7 mg/dL
same,K,[4],3.6 meq/L
same,LDH,[4],222.4 IU/L
same,Na,[4],142.2 meq/L
same,PL,[4],136.2 mg/dL
same,RALB,[4],3.2 g/dL
same,TBIL,[4],0.016 mg/dL
same,TC,[4],86.4 mg/dL
same,TG,[4],44.6 mg/dL
same,TP,[4],5.7 g/dL
same,gamma-GTP,[4],1.4 IU/L
same,TERMINAL_BW,[5],215.3 g
same,APTT,[5],22.2 s
same,Bas,[5],0%
same,Eos,[5],1.2%
same,Fbg,[5],336.8 mg/dL
same,Ht,[5],42.8%
same,MCH,[5],21.1 pg
same,MCHC,[5],31.1%
same,MCV,[5],67.9 fL
same,Mono,[5],2%
same,Plat,[5],114.9 x10_4/uL
same,RBC,[5],630.4 x10_4/ul
same,Ret,[5],8.1%
same,WBC,[5],60.8 x10_2/uL
same,KIDNEY_L,[5],0.9 g
same,KIDNEY_R,[5],1 g
same,KIDNEY_TOTAL,[5],1.9 g
same,LIVER,[5],9.6 g
same,ALP,[5],1769.8 IU/L
same,AST,[5],76 IU/L
same,BUN,[5],12.2 mg/dL
same,CRE,[5],0.2 mg/dL
same,Ca,[5],11.1 mg/dL
same,Cl,[5],112 meq/L
same,DBIL,[5],0 mg/dL
same,GLC,[5],188.6 mg/dL
same,IP,[5],10.5 mg/dL
same,K,[5],4 meq/L
same,LDH,[5],209.8 IU/L
same,Na,[5],140.2 meq/L
same,PL,[5],140.4 mg/dL
same,RALB,[5],3.3 g/dL
same,TBIL,[5],0.008 mg/dL
same,TG,[5],24.8 mg/dL
same,TP,[5],5.9 g/dL
same,gamma-GTP,[5],1.2 IU/L
same,TERMINAL_BW,[6],204.7 g
same,APTT,[6],23.6 s
same,Bas,[6],0%
same,Eos,[6],1.4%
same,Fbg,[6],340.8 mg/dL
same,Ht,[6],42.8%
same,MCH,[6],21.2 pg
same,MCHC,[6],31.1%
same,MCV,[6],68 fL
same,Mono,[6],2.4%
same,PT,[6],16.8 s
same,Plat,[6],120.2 x10_4/uL
same,RBC,[6],628.2 x10_4/ul
same,Ret,[6],8.5%
same,WBC,[6],85.2 x10_2/uL
same,KIDNEY_L,[6],0.9 g
same,KIDNEY_R,[6],1 g
same,KIDNEY_TOTAL,[6],1.9 g
same,LIVER,[6],8.3 g
same,ALP,[6],1569.2 IU/L
same,AST,[6],69 IU/L
same,BUN,[6],10.6 mg/dL
same,CRE,[6],0.2 mg/dL
same,Ca,[6],11.1 mg/dL
same,Cl,[6],113 meq/L
same,DBIL,[6],0 mg/dL
same,GLC,[6],185.2 mg/dL
same,IP,[6],10.1 mg/dL
same,K,[6],3.8 meq/L
same,LDH,[6],205.4 IU/L
same,Na,[6],138.4 meq/L
same,PL,[6],149.8 mg/dL
same,RALB,[6],3.4 g/dL
same,TBIL,[6],0.016 mg/dL
same,TC,[6],90.4 mg/dL
same,TG,[6],23 mg/dL
same,TP,[6],6 g/dL
same,gamma-GTP,[6],1.2 IU/L
same,TERMINAL_BW,[7],201.6 g
same,APTT,[7],24 s
same,Bas,[7],0%
same,Eos,[7],0.8%
same,Fbg,[7],344.6 mg/dL
same,Ht,[7],43%
same,MCHC,[7],30.9%
same,MCV,[7],66.6 fL
same,Mono,[7],2.2%
same,PT,[7],16 s
same,Plat,[7],123.6 x10_4/uL
same,RBC,[7],645.4 x10_4/ul
same,Ret,[7],8.8%
same,WBC,[7],51.5 x10_2/uL
same,KIDNEY_L,[7],0.9 g
same,KIDNEY_R,[7],0.9 g
same,KIDNEY_TOTAL,[7],1.9 g
same,LIVER,[7],7.7 g
same,ALP,[7],1753.6 IU/L
same,AST,[7],59 IU/L
same,BUN,[7],13.4 mg/dL
same,CRE,[7],0.2 mg/dL
same,Ca,[7],11 mg/dL
same,Cl,[7],114.2 meq/L
same,DBIL,[7],0 mg/dL
same,GLC,[7],172.6 mg/dL
same,IP,[7],10 mg/dL
same,K,[7],3.8 meq/L
same,LDH,[7],176.4 IU/L
same,Na,[7],138.6 meq/L
same,PL,[7],127.8 mg/dL
same,RALB,[7],3.4 g/dL
same,TBIL,[7],0.02 mg/dL
same,TC,[7],85 mg/dL
same,TG,[7],11.4 mg/dL
same,TP,[7],6.1 g/dL
same,gamma-GTP,[7],1.2 IU/L
same,TERMINAL_BW,[8],199.5 g
same,APTT,[8],22.2 s
same,Bas,[8],0%
same,Eos,[8],1%
same,Fbg,[8],359.2 mg/dL
same,Ht,[8],41.1%
same,MCH,[8],20.3 pg
same,MCHC,[8],32.8%
same,MCV,[8],61.9 fL
same,Mono,[8],2.2%
same,PT,[8],16.9 s
same,Plat,[8],112.5 x10_4/uL
same,RBC,[8],663.8 x10_4/ul
same,Ret,[8],8%
same,WBC,[8],74.5 x10_2/uL
same,KIDNEY_L,[8],0.9 g
same,KIDNEY_R,[8],0.9 g
same,KIDNEY_TOTAL,[8],1.9 g
same,LIVER,[8],7.9 g
same,ALP,[8],1549.4 IU/L
same,AST,[8],49.6 IU/L
same,BUN,[8],18.8 mg/dL
same,CRE,[8],0.2 mg/dL
same,Ca,[8],10.7 mg/dL
same,Cl,[8],116.8 meq/L
same,DBIL,[8],0 mg/dL
same,IP,[8],8.2 mg/dL
same,K,[8],3.8 meq/L
same,LDH,[8],205.2 IU/L
same,Na,[8],140.6 meq/L
same,PL,[8],137.4 mg/dL
same,RALB,[8],3.5 g/dL
same,TBIL,[8],0.016 mg/dL
same,TC,[8],89.6 mg/dL
same,TG,[8],26.8 mg/dL
same,TP,[8],6 g/dL
same,gamma-GTP,[8],1.2 IU/L
